One test has as its target T1, PP2CA (AtPP2CA) (Arabidopsis thaliana, UniProt P49598).
T1 construct: GST-PP2CA (pGEX-6P-1), E. coli BL21(DE3)
T1 sequence (P49598 1-399): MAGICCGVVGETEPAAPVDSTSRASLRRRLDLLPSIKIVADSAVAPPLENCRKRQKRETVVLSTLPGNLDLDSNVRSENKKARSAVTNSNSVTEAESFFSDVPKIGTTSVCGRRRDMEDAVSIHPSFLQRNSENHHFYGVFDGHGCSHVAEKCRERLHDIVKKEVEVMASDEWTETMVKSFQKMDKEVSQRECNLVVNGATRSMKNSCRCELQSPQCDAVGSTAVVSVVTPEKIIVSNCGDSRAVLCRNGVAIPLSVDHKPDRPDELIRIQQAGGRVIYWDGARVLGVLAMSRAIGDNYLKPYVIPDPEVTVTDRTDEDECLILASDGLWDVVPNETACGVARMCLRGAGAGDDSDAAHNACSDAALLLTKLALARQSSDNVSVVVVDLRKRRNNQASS
The test can be described thus: phosphatase assay, A405. It is filed as biochemical. The following applies: 50 mM pNPP, 0.5 μM PP2C, 33 mM Tris-OAc pH 7.9, 25 mM Mg(OAc)2.

The next test has as its target T2, ABI1 (AtABI1) (Arabidopsis thaliana, UniProt P49597).
T2 construct: GST-ABI1 (pGEX-6P-1), E. coli BL21(DE3)
T2 sequence (P49597 1-434): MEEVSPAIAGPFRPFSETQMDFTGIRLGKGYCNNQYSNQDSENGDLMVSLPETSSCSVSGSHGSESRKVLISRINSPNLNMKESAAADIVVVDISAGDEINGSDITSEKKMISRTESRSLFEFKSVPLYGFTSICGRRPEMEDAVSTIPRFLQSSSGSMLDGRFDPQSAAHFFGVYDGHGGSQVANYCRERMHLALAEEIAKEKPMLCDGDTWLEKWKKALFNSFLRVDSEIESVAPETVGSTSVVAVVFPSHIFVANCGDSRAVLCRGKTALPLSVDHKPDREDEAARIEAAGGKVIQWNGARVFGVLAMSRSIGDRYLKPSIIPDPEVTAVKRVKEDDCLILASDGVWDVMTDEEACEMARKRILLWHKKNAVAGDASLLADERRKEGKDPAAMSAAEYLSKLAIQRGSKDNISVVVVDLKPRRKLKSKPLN
The test can be described thus: phosphatase assay, A405. It is filed as biochemical. The settings on record: 50 mM pNPP, 0.5 μM PP2C, 33 mM Tris-OAc pH 7.9, 25 mM Mg(OAc)2.

Turning to `O=[N+]([O-])c1ccc(OP(=O)(O)O)cc1` [pNPP], the “phosphatase assay, A405” value at PP2CA (AtPP2CA) and on ABI1 (AtABI1) was “Initial reaction velocities for GST-PP2Cs were measured using the synthetic phosphatase substrate pNPP” throughout.

The values above are taken from paper PMC12717121, “ABA-independent PP2C-binding in PYLs traces to bacterial origins and persists in land plants” (Nature Communications, 2025).
